Results: patent US20230219979A1, “PYRAZOLO[1,5-a]PYRIDINE COMPOUND, PREPARATION METHOD THEREFOR AND USE THEREOF” (SHENZHEN ZHONGGE BIOLOGICAL TECHNOLOGY CO., LTD., priority 2019, published 2023)
pIC50: −log10 of the molar value.

Key:
RET M918T = RET M918T (Homo sapiens, UniProt P07949, M918T); assay: Inhibitory activity against RET kinase mutant RET M918T; type: biochemical; conditions: read-out: median inhibitory activity (IC50) against RET M918T
RET V804M = RET V804M (Homo sapiens, UniProt P07949, V804M); assay: Inhibitory activity against RET kinase mutant RET V804M; type: biochemical; conditions: read-out: median inhibitory activity (IC50) against RET V804M
Chain of RET V804M (P07949 29-1114 V804M): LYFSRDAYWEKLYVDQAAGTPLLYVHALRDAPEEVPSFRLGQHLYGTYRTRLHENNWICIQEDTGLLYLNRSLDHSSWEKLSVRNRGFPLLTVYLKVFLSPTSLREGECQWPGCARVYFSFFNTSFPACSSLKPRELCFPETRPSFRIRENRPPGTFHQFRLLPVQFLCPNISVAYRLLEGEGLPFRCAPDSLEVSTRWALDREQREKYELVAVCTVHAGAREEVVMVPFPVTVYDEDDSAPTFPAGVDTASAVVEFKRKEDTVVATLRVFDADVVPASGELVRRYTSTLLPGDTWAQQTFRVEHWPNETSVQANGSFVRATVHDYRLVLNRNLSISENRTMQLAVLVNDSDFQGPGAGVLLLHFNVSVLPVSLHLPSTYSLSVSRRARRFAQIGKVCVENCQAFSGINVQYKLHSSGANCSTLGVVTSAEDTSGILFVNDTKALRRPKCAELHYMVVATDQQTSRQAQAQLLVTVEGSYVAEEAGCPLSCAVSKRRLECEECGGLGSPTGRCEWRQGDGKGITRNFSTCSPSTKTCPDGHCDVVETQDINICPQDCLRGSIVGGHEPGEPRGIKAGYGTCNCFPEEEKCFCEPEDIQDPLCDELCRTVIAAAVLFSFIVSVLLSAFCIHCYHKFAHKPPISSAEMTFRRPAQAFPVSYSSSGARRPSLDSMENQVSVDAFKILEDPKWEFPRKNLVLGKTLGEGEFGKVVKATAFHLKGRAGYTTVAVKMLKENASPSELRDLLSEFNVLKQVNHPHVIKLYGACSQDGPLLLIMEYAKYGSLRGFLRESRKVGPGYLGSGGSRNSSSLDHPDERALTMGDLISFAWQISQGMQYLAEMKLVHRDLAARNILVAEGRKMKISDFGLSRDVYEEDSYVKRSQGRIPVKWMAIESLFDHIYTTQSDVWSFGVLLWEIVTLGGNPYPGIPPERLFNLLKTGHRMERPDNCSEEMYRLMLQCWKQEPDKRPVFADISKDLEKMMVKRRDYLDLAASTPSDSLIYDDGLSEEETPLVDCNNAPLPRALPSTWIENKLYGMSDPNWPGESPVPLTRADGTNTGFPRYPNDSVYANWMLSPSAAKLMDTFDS

RET G810R kinase = RET G810R kinase (Homo sapiens, UniProt P07949, G810R); assay: HTRF method for testing the inhibitory activity against RET G810R; type: biochemical; conditions: for pIC50: HTRF; for inhibitory activity against G810R (in words): mutant strain of RET kinase
Chain of RET G810R kinase (P07949 29-1114 G810R): as the sequence (P07949 29-1114 V804M) above, with M776V, G782R counted along it

VEGFR2 kinase = VEGFR2 kinase (Homo sapiens, UniProt P35968); assay: HTRF method for testing the inhibitory activity of compounds against VEGFR2; type: biochemical
Chain of VEGFR2 kinase (P35968 20-1356): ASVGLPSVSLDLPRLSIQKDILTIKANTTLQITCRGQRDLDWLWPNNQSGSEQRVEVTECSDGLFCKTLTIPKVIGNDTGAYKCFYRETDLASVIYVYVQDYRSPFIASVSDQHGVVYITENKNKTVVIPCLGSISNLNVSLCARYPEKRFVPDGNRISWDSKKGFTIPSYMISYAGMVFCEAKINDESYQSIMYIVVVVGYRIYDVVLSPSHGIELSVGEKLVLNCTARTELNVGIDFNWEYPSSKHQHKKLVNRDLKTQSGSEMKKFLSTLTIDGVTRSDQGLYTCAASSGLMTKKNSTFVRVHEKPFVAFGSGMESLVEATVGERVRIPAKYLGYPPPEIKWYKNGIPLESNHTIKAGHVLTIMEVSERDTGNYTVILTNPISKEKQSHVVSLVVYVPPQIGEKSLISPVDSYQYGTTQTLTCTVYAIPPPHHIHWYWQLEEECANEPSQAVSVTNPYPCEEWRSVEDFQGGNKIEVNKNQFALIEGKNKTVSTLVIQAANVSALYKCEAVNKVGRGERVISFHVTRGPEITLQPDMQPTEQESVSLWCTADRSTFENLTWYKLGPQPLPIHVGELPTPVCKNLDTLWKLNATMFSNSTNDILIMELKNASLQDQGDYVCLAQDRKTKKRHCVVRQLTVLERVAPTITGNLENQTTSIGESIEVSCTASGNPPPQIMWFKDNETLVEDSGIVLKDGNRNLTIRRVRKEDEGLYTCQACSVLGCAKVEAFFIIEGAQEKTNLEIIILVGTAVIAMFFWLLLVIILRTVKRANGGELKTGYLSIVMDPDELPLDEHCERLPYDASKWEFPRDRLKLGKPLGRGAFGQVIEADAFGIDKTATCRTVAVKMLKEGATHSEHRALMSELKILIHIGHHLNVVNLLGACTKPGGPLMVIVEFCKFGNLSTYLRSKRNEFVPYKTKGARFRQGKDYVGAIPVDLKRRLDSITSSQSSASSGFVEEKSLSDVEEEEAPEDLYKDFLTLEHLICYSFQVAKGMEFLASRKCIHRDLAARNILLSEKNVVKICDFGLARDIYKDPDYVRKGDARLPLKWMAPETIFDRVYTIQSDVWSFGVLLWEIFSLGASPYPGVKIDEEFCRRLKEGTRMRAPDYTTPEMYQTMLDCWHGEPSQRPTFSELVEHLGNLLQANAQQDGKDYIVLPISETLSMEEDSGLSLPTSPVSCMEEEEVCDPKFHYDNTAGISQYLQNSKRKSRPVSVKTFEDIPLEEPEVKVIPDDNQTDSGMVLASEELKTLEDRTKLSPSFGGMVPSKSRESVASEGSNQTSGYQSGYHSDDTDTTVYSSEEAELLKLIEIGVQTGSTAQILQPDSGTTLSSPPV

Wild-type RET kinase = Wild-type RET kinase (Homo sapiens, UniProt P07949); assay: HTRF method for testing the inhibitory activity of compounds against RET; type: biochemical; conditions: HTRF; read-out: Wild-type RET kinase
Chain of Wild-type RET kinase (P07949 29-1114): as the sequence (P07949 29-1114 V804M) above, with M776V counted along it

Ba/F3-KIF5B-RET cell = molecular target: T1, Ba/F3-KIF5B-RET cell (Homo sapiens, UniProt P07949); assay: CellTiter-Glo luminescence assay, inhibitory activity against Ba/F3-KIF5B-RET cell; type: cell-based; conditions: 72 h, read-out: Ba/F3-KIF5B-RET cell activity
T1 construct: fused on or other part: P33176 (Kinesin-1 heavy chain)
T1 sequence (P07949 whole entry, stated change not applied, the tested form may be a part): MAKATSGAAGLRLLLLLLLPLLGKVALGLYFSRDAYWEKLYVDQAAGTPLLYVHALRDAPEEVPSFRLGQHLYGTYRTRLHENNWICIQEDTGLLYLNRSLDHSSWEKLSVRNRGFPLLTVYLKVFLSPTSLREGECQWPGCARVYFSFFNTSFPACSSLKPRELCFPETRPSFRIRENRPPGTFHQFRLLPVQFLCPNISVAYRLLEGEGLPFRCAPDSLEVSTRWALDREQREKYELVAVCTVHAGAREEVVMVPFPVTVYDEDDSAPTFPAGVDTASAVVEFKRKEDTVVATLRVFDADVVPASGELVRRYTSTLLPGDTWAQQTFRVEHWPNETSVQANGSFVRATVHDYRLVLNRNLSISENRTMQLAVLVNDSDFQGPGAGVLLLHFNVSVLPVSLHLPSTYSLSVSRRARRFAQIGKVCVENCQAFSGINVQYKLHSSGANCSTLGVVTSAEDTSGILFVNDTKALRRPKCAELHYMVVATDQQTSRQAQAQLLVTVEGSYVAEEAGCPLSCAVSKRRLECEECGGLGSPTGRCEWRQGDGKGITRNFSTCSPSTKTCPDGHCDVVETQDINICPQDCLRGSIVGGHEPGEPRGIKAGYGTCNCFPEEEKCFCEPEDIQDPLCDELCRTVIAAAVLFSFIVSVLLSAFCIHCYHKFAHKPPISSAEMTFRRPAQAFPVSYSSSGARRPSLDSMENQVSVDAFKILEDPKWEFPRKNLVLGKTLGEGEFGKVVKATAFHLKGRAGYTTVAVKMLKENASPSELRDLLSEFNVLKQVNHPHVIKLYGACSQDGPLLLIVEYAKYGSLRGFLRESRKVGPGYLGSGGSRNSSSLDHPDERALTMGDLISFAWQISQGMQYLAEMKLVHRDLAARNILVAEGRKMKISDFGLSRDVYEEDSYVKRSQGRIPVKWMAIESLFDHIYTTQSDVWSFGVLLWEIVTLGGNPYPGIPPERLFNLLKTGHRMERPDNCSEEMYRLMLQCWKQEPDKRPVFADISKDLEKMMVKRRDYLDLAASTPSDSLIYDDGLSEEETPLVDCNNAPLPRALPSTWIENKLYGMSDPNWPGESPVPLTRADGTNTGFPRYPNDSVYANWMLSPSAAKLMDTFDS
Procedure, shortened: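 Ba/F3 cells stably expressing human KIF5B-RET, 800 per well, treated 72 h at 37° C with 10 compound concentrations from 5000 to 0.254 nM (0.5% DMSO). Viability by CellTiter-Glo luminescence; IC50 from curve fitting.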

RET G810S kinase = RET G810S kinase (Homo sapiens, UniProt P07949, G810S); assay: HTRF method for testing the inhibitory activity against RET G810S; type: biochemical; conditions: for pIC50: HTRF; for inhibitory activity against G810S (in words): mutant strain of RET kinase
Chain of RET G810S kinase (P07949 29-1114 G810S): as the sequence (P07949 29-1114 V804M) above, with M776V, G782S counted along it

CCDC6-RET = molecular target: T2, CCDC6-RET (Homo sapiens, UniProt P07949); assay: Inhibitory activity against RET gene fusion CCDC6-RET; type: biochemical; conditions: read-out: median inhibitory activity (IC50) against CCDC6-RET
T2 construct: CCDC6 (fusion partner, N-terminal part); the other entry of the earlier key: CCDC6 (Q16204, Coiled-coil domain-containing protein 6)
T2 sequence (P07949 with tags, fused parts or gaps): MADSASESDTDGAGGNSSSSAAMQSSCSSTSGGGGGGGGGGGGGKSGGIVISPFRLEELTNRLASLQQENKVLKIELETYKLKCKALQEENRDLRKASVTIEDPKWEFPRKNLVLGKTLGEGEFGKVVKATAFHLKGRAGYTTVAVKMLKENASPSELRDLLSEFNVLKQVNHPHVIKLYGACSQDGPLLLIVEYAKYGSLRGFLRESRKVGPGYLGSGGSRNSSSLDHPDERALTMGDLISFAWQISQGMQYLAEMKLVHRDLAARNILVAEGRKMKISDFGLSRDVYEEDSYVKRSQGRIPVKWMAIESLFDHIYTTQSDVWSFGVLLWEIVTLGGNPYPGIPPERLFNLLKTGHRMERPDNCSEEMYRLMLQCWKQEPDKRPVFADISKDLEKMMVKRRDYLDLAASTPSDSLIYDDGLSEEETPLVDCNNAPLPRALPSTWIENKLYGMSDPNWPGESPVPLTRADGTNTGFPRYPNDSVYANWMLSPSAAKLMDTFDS

Chain of RET M918T (P07949 29-1114 M918T): as the sequence (P07949 29-1114 V804M) above, with M776V, M890T counted along it

Structure (SMILES)	pIC50 (RET M918T)	pIC50 (RET V804M)	pIC50 (RET G810R kinase)	inhibitory activity against G810R (in words) (RET G810R kinase)	pIC50 (VEGFR2 kinase)	pIC50 (Wild-type RET kinase)	GI50 (Ba/F3-KIF5B-RET cell) [nM]	pIC50 (RET G810S kinase)	inhibitory activity against G810S (in words) (RET G810S kinase)	pIC50 (CCDC6-RET)
CCNc1cc(-c2cnc(N3CC4CC(C3)N4Cc3ccc(OC)nc3)cn2)c2c(C#N)cnn2c1 [Compound 29, 6-(ethylamino)-4-(5-(-6-((6-methoxypyridin-3-yl)methyl)-3,6-diazabicyclo[3.1.1]heptane-3-yl)pyrazin-2-yl)pyrazolo[1,5-a]pyridine-3-carbonitrile]	> 8.30	> 8.30	7.62	good inhibitory activity	7.25	9.74	4.43	8.71	good inhibitory activity	> 8.30
COc1ccc(CN2C3CC2CN(c2ccc(-c4cc(NCCF)cn5ncc(C#N)c45)cn2)C3)cn1 [Compound 49, 6-((2-fluoroethyl)amino)-4-(6-(6-((6-methoxypyridin-3-yl)methyl)-3,6-diazabicyclo[3.1.1]hept-3-yl)pyridin-3-yl)pyrazolo[1,5-a]pyridine-3-carbonitrile]	–	–	8.73	good inhibitory activity	7.55	9.72	1.52	9.28	good inhibitory activity	–
COc1ccc(CN2C3CC2CN(c2ccc(-c4cc(N5CCOCC5)cn5ncc(C#N)c45)cn2)C3)cn1 [Compound 70, 4-(6-(6-((6-methoxypyridin-3-yl)methyl)-3,6-diazabicyclo[3.1.1]heptyl-3-yl)pyridin-3-yl)-6-morpholinopyrazolo[1,5-a]pyridine-3-carbonitrile]	–	–	7.50	good inhibitory activity	7.24	9.62	1.97	7.98	good inhibitory activity	–
COc1ccc(CN2C3CC2CN(c2cnc(-c4cc(N5CCOCC5)cn5ncc(C#N)c45)cn2)C3)cn1 [Compound 66, 4-(5-(6-((6-methoxypyridin-3-yl)methyl)-3,6-diazabicyclo[3.1.1]heptyl-3-yl)pyrazin-2-yl)-6-morpholinopyrazolo[1,5-a]pyridine-3-carbonitrile]	–	–	6.76	good inhibitory activity	6.50	9.09	6.21	7.57	good inhibitory activity	–
COc1ccc(CN2C3CC2CN(c2ccc(-c4cc(NC(C)C)cn5ncc(C#N)c45)cn2)C3)cn1 [Compound 69, 6-(isopropylamino)-4-(6-(6-((6-methoxypyridin-3-yl)methyl)-3,6-diazabicyclo[3.1.1]heptyl-3-yl)pyridin-3-yl)pyrazolo[1,5-a]pyridine-3-carbonitrile]	–	–	7.37	good inhibitory activity	7.37	9.33	4.14	7.57	good inhibitory activity	–
COc1ccc(CN2C3CC2CN(c2ccc(-c4cc(NCC(C)C)cn5ncc(C#N)c45)cn2)C3)cn1 [Compound 67, 6-(isobutylamino)-4-(6-(6-((6-methoxypyridin-3-yl)methyl)-3,6-diazabicyclo[3.1.1]hept-3-yl)pyridin-3-yl)pyrazolo[1,5-a]pyridine-3-carbonitrile]	–	–	7.04	good inhibitory activity	7.34	9.82	2.19	7.96	good inhibitory activity	–
COc1ccc(CN2C3CC2CN(c2ccc(-c4cc(Br)cn5ncc(C#N)c45)cn2)C3)cn1 [Compound 48]	–	–	7.20	good inhibitory activity	6.06	8.54	105	7.88	good inhibitory activity	–
COc1ccc(CN2C3CC2CN(c2ccc(-c4cc(NCC(F)F)cn5ncc(C#N)c45)cn2)C3)cn1 [Compound 50]	–	–	8.25	good inhibitory activity	7.23	9.89	5.75	8.87	good inhibitory activity	–
CCCNc1cc(-c2ccc(N3CC4CC(C3)N4Cc3ccc(OC)nc3)nc2)c2c(C#N)cnn2c1 [Compound 57, 4-(6-(6-((6-methoxypyridin-3-yl)methyl)-3,6-diazabicyclo[3.1.1]heptan-3-yl)pyridin-3-yl)-6-(propylamino)pyrazolo[1,5-a]pyridine-3-carbonitrile]	–	–	7.97	good inhibitory activity	7.50	9.49	1.24	8.63	good inhibitory activity	–
COc1ccc(CN2C3CC2CN(c2ccc(-c4cc(NCC(C)(C)O)cn5ncc(C#N)c45)cn2)C3)cn1 [Compound 63, 6-((2-hydroxy-2-methylpropyl)amino)-4-(6-(6-((6-methoxypyridin-3-yl)methyl)-3,6-diazabicyclo[3.1.1]heptan-3-yl)pyridin-3-yl)pyrazolo[1,5-a]pyridine-3-carbonitrile]	–	–	7.11	good inhibitory activity	7.19	9.33	3.39	7.82	good inhibitory activity	–
COc1ccc(CN2C3CC2CN(c2ccc(-c4cc(NCC(F)(F)F)cn5ncc(C#N)c45)cn2)C3)cn1 [Compound 56, 4-(6-(6-((6-methoxypyridin-3-yl)methyl)-3,6-diazabicyclo[3.1.1]heptan-3-yl)pyridin-3-yl)-6-((2,2,2-trifluoroethyl)amino)pyrazolo[1,5-a]pyridine-3-carbonitrile]	–	–	7.71	good inhibitory activity	6.99	9.70	8.53	8.33	good inhibitory activity	–
CCNc1cc(-c2ccc(N3CC4CC(C3)N4Cc3ccc(-n4cc(F)cn4)nc3)nc2)c2c(C#N)cnn2c1 [Compound 52, 6-(ethylamino)-4-(6-(6-((6-(4-fluoro-1H-pyrazol-1-yl)pyridin-3-yl)methyl)-3,6-diazabicyclo[3.1.1]heptan-3-yl)pyridin-3-yl)pyrazolo[1,5-a]pyridine-3-carbonitrile]	> 8.30	> 8.30	–	–	7.41	8.69	142	–	–	> 8.30
